# Measured values: publication PMC3537892 (Clinical cancer research : an official journal of the …, 2012)
# System: RENCA renal cancer cells grafted in the renal capsule
# Assay: Orthotopic RENCA renal cancer allograft
# Type: in vivo, BALB/c mice
# Conditions: three i.v. injections in fourth week after grafting; p < 0.003
smiles,measurement,value
"CC(=O)O[C@H]1C(=O)[C@@]2(C)[C@H]([C@H](OC(=O)c3ccccc3)[C@]3(O)C[C@H](OC(=O)[C@H](O)[C@@H](NC(=O)c4ccccc4)c4ccccc4)C(C)=C1C3(C)C)[C@]1(OC(C)=O)CO[C@@H]1C[C@@H]2O [PTX, paclitaxel]",tumor volume compared to vehicle control,significantly decreased tumor volume
